Assay results reported in PubChem BioAssay (NCI).
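Method: 48-hour compound exposure of cells in 96-well plates, five concentrations, linear interpolation of endpoints. GI50 marks 50% less growth. TGI is the concentration that stops growth completely.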

Assays:
Test in all cases: DTP human tumour cell line panel, 48 h
A549 NSCLC = test system: A549 NSCLC
ACHN renal = test system: ACHN renal
CAKI-1 renal = test system: CAKI-1 renal
CCRF-CEM leukemia = test system: CCRF-CEM leukemia
HCT-15 colon = test system: HCT-15 colon
HOP-62 NSCLC = test system: HOP-62 NSCLC
MALME-3M melanoma = test system: MALME-3M melanoma
NCI-H23 lung = test system: NCI-H23 lung
OVCAR-4 ovarian = test system: OVCAR-4 ovarian
SK-MEL-5 melanoma = test system: SK-MEL-5 melanoma
UACC-62 melanoma = test system: UACC-62 melanoma
IGROV1 ovarian = test system: IGROV1 ovarian

Row | Compound | TGI (A549 NSCLC) [µM] | TGI (ACHN renal) [µM] | TGI (CAKI-1 renal) [µM] | TGI (CCRF-CEM leukemia) [µM] | TGI (HCT-15 colon) [µM] | TGI (HOP-62 NSCLC) [µM] | TGI (MALME-3M melanoma) [µM] | TGI (NCI-H23 lung) [µM] | TGI (OVCAR-4 ovarian) [µM] | TGI (SK-MEL-5 melanoma) [µM] | TGI (UACC-62 melanoma) [µM] | TGI (IGROV1 ovarian) [µM] | GI50 (A549 NSCLC) [µM] | GI50 (ACHN renal) [µM] | GI50 (CCRF-CEM leukemia) [µM] | GI50 (HCT-15 colon) [µM] | GI50 (HOP-62 NSCLC) [µM] | GI50 (MALME-3M melanoma) [µM] | GI50 (OVCAR-4 ovarian) [µM]
1 | O=C(c1ccc2ccccc2c1)N(Cc1cccnc1)C(=S)N(Cc1cccnc1)C(=O)c1ccc2ccccc2c1 | > 100 | > 100 | 44 | > 100 | > 100 | 55.2 | > 100 | 63.7 | 45.3 | 41.3 | > 100 |  |  |  |  |  |  |  | 
2 | C=C1CC[C@@H](Br)C(C)(C)[C@]12CCC(C)(O)C(Cl)C2 (stereo partly specified) | 45.2 | 36.4 | 32 | 47.9 | 30.4 | 49.7 | 86.2 | 64.4 |  | 35.7 | 41.4 | 44 |  |  |  |  |  |  | 
3 | CCOC(=O)[C@H]1Nc2c(cccc2[N+](=O)[O-])[C@H]2OCC[C@@H]12 | > 100 | > 100 | > 100 |  | > 100 | > 100 | > 100 | > 100 | > 100 | > 100 | > 100 | > 100 |  |  |  |  |  |  | 
4 | CC[C@H](Nc1nc(N)nc(C)c1C#N)c1nc2cccc(NCc3ccc(C(=O)NO)cc3)c2c(=O)n1-c1ccccc1 | 5.43 | 4.67 |  | > 100 | 6.25 | 6.22 | 4.13 |  | 7.52 |  |  |  | 2.35 | 1.94 | 0.679 | 2.29 | 2.35 | 1.63 | 2.01
5 | CC(=O)O[C@H]1CC[C@@]2(C)C(=CC[C@@H]3[C@@H]2CC[C@]2(C)Nc4c(cnn4S(C)(=O)=O)C[C@@H]32)C1 |  |  | > 100 | > 100 | > 100 | > 100 | > 100 | > 100 |  | 30.6 | > 100 | > 100 |  |  |  |  |  |  | 
6 | O=C(O)c1ccc([N+]2=Cn3c(nc4ccccc43)C2)cc1 | > 100 | > 100 | > 100 | > 100 | > 100 | > 100 | 3.05 | > 100 | > 100 | > 100 | > 100 | > 100 |  |  |  |  |  |  | 
7 | O=C1C(c2c(O)[nH]c3ccc(S(=O)(=O)O)cc23)=Nc2ccc(Br)cc21 | > 100 | > 100 | > 100 | > 100 | > 100 | > 100 | > 100 | > 100 | > 100 | > 100 | > 100 | > 100 |  |  |  |  |  |  | 
8 | C/C(=N\Oc1cc(Cl)ncn1)c1ccccn1 | > 100 | > 100 | 57.5 | > 100 |  | > 100 | > 100 | 92.7 | > 100 | > 100 | > 100 | > 100 |  |  |  |  |  |  | 
9 | CCC1(CCSC(=N)N)C(=O)NC(=O)NC1=O | > 100 | > 100 | > 100 | > 100 | > 100 | > 100 | > 100 | > 100 | > 100 | > 100 | > 100 | > 100 |  |  |  |  |  |  | 
10 | O=C(O)CCSCc1ccc(I)cc1 | > 100 | > 100 | > 100 | > 100 | > 100 | > 100 | > 100 | > 100 | > 100 | > 100 | > 100 | > 100 |  |  |  |  |  |  | 
11 | CCCCCCCCCCCCCCCC(=O)OCC1CCCN2CCCCC12 (stereo unspecified) | > 100 | > 100 | > 100 | > 100 | > 100 | > 100 | > 100 | > 100 | > 100 | > 100 | > 100 |  |  |  |  |  |  |  | 
12 | O=C1Nc2ccccc2S/C1=C\c1cccc(C(F)(F)F)c1 | > 100 | > 100 | 37.4 | > 100 | > 100 | > 100 | > 100 |  | > 100 | > 100 | > 100 | > 100 |  |  |  |  |  |  | 
13 | CCOC(=O)CC1(O)CCCCC1(Sc1ccc(C)cc1)Sc1ccc(C)cc1 (stereo unspecified) | > 100 | > 100 | > 100 | > 100 | > 100 | > 100 | 91.8 | > 100 | > 100 | > 100 | > 100 |  |  |  |  |  |  |  | 
14 | O=C(CCl)NC(Cc1ccc(F)cc1)C(=O)O (stereo unspecified) | > 100 |  | > 100 | > 100 | > 100 | > 100 | > 100 | > 100 | > 100 | > 100 | > 100 | > 100 |  |  |  |  |  |  | 
15 | Cc1ccc(C[P+]2(c3ccccc3)CCCCC2)cc1 | > 100 | > 100 |  | > 100 | > 100 | > 100 | > 100 | > 100 | > 100 | 24.4 | 66.2 | > 100 |  |  |  |  |  |  | 
16 | CC(=O)OC/C=C/Cn1ncc(=O)[nH]c1=O | > 100 | > 100 | > 100 |  | > 100 | > 100 | > 100 |  |  | > 100 |  | > 100 |  |  |  |  |  |  | 
17 | CC(C)OC(=O)C1=C(O)c2ccccc2S(=O)(=O)N1 | > 100 | > 100 | > 100 | > 100 | > 100 | > 100 | > 100 | > 100 | > 100 | > 100 | > 100 | > 100 |  |  |  |  |  |  | 
18 | N=c1nc2n(cc1F)[C@@H]1O[C@H](CO)[C@@H](O)[C@@H]1O2 | > 100 | > 34.4 | > 100 | > 12.3 | > 100 | > 100 | > 34 | > 55.8 | > 100 | > 74.7 | > 100 | > 92.7 |  |  |  |  |  |  | 
19 | O=C1Nc2ccccc2S/C1=C\c1ccccc1C(F)(F)F | > 100 | > 100 | > 100 | > 100 | > 100 | > 100 | > 100 |  | 49.4 | > 100 | > 100 | > 100 |  |  |  |  |  |  | 
20 | O=[As](O)(O)c1ccc(N=Nc2ccc([As](=O)(O)O)cc2)cc1 | > 100 | > 100 | > 100 |  | > 100 | > 100 | > 100 | > 100 | > 100 | > 100 | > 100 | > 100 |  |  |  |  |  |  | 
21 | Cc1ccc([N+](=O)[O-])cc1NC(=O)C(=O)C(C(=O)c1ccccc1F)C1OC(=O)c2ccccc21 (stereo unspecified) | > 100 | > 100 | > 100 | > 100 | > 100 | > 100 |  | > 100 | > 100 | > 100 | > 100 | > 100 |  |  |  |  |  |  | 
22 | Oc1c2c(c3c4c1N=CC=4CCN=3)-c1c(Br)cc(Br)cc1CCN2 | 10.3 |  | 51.1 | 6.7 | 15.4 | 29.8 |  | 3.88 | 6.23 | 3.38 | 2.77 | 13.8 |  |  |  |  |  |  | 
23 | O=[N+]([O-])c1ccc2c(c1)Nc1c3ccccc3nc3cccc-2c13 | 15.9 | > 60.5 | 18.8 | 6.19 | 81.2 | 7.7 | 19.4 | > 55.1 | 11.4 | 5.51 | 18.1 | 15.4 |  |  |  |  |  |  | 
24 | O=C(N/C(=C\c1cccc([N+](=O)[O-])c1)c1nc2[nH]c(=S)[nH]c(=O)c2[nH]1)c1ccccc1 | > 100 | > 100 | > 100 | > 100 | > 100 | > 100 | > 100 | > 100 | > 100 | > 100 | > 100 | > 100 |  |  |  |  |  |  | 
25 | Nc1nncc2c1ccn2C1OC(CO)C(O)C1O (stereo unspecified) | > 100 | > 100 |  | > 100 | > 100 | > 100 | > 100 | > 100 | > 100 | > 100 | > 100 | > 100 |  |  |  |  |  |  | 
26 | Cc1ccc(S(=O)(=O)N/N=c2\c(C)c(C3=NS(=O)(=O)c4cc(S(N)(=O)=O)c(Cl)cc4N3)oc3c(Cl)cc(Cl)cc23)cc1 | > 100 | > 100 | > 100 | > 100 | > 100 | > 100 | > 100 | > 100 | > 100 | > 100 | > 100 | > 100 |  |  |  |  |  |  | 
27 | Nc1c(-c2nc3ccccc3o2)sc(=S)n1-c1ccc(Cl)cc1 | 39.2 | 24.1 | 53.4 | > 100 | > 100 | 15.8 | 56.5 | 37.8 | 31.6 | 56.9 | 27.8 | 46.3 |  |  |  |  |  |  | 
28 | O=C(O)c1cc2cc(c1)N=Cc1ccccc1OCc1cccc(n1)COc1ccccc1C=N2 | > 25 | > 25 |  | > 25 | > 25 | > 25 | 22.4 | > 25 | > 25 |  | > 25 | > 25 |  |  |  |  |  |  | 
29 | Cc1cc2c(cc1C)[n+](=O)c(C#N)c(Cl)n2[O-] | 80.8 | 23.9 | 19.7 | 45.3 | 16.7 | 55.7 | 30 | 25.1 | 31.2 | 29 | 29.6 | 33.3 |  |  |  |  |  |  | 
